“And” between values parts separate entries of the source, which are not always exact repeats. Equal entries are not always repeated.
How the values were obtained:
[1] = system: striped bass (M. saxatilis) larvae; assay: Striped bass larvae feeding experiment (day 24-46) on Artemia enriched with DHA/AA emulsions: growth, survivorship; assay type: in vivo, Morone saxatilis; details: day 46
Method: Newly hatched striped bass (M. saxatilis) larvae were obtained from the Aquaculture Research Center (ARC) of the Center of Marine Biotechnology (COMB), University of Maryland. Larvae were raised for 17 days post hatching on rotifers, Bracionus plicatilis (2-5 rotifers ml^−1), which were grown separately on fresh-water Chlorella sp. paste (0.5 g/10^6 rotifers/day, obtained from Martek BioSci. Inc. Columbia, Md.).
Seventeen days post-hatched larvae were randomly distributed in eighteen 60-liter rearing tanks at an initial density of 160 larvae per tank. The rearing tanks were gently aerated and the water volume exchanged 1-2 times per day with biofiltered, UV treated recirculating water. A 14:10 h light:dark photoperiod cycle was maintained using fluorescent lights (Daylight; 40 watts; 800-1200 lux at the water surface). Temperature was maintained at 24±2° C. and salinity at 2-6 psu. Water quality was monitored daily, and levels of total NH3, unionized N-3, NO2 and pH were maintained below 0.2 ppm, 0.001 ppm, 0.3 ppm and at 8.02, respectively, by partial replacement with fresh water.
Newly hatched Artemia nauplii were introduced to the larvae from day 17 until day 24 (once a day at 20-40 nauplii 1^−1), while rotifer concentration was reduced gradually to a complete removal by day 24.
Larvae then were fed twice daily with Artemia nauplii, enriched with nine dietary emulsions containing varying proportions of DHA and AA.
A 3×3 factorial design with two nutritional factors (DHA and AA) at three levels each and in duplicate blocks was used. This experimental design allowed for the simultaneous study of the effect of increasing dietary levels of DHA and AA either alone or in various combination of both fatty acids. Nine different emulsions having varying proportions of DHA-rich triacylglycerols from heterotrophically grown algae, Crypthecodinium spp. (0, 11.1 and 21.6 mg g^−1 lipids) and AA-rich triacylglycerols (3, 14.5 and 24.8 mg g^−1 lipids) from fungi, Mortierella spp. (DHASCO and ARASCO, Martek BioSci. Columbia, Md.) were formulated.
A mixture of 2% alginic acid, 2% polyoxyethylene sorbitan mono-oleate (Tween-80), 1% ascorbic acid, 1% vitamin-E, 1% silicon based anti-foaming agent (all mad e by Sigma Co. MO) and 5% soy lecithin (80% phosphatidylcholine, Archer Daniels Midland Co., Decatur, Ill.) were added to the oils (all additions made by weight). […]
Feeding experiments were terminated on day 46. […] Survivorship was determined based on the initial and final count of larvae in each rearing tank. […]

[2] = system: striped bass (M. saxatilis) larvae; assay: Whole larva cortisol (RIA) in high-salinity stress; assay type: in vivo, Morone saxatilis; details: for Body Cortisol at 30 min: 30 min high-salinity stress
Method: (§1) A group of 30 larvae was promptly transferred from the 10-liter bucket and immediately divided into three 1-liter beakers (ten larvae in each beaker) containing 25-ppt NaCl in dechlorinated fresh water. These hypersaline exposure conditions were established following preliminary tests in which approximately 50% of the larvae survived after 30 minutes exposure. Larval survival at 0, 15 and 30 minutes was recorded, and five larvae at each time interval were quickly removed and sacrificed on dry ice. Samples were washed with chilled distilled water, dried on paper towel, placed into test tubes and lyophilized to constant weight. The dry weight of each hypersaline-exposed larva was recorded to the nearest 0.1 mg. Samples were kept at −80° C. for subsequent whole larva cortisol analysis.
Cortisol was measured on whole larva using a solid-phase radioimmunoassay (RIA) Coat-A-Count Cortisol kit (DPC, Los Angeles, Calif.) following the manufacturer's procedure. Whole body cortisol was extracted from lyophilized larvae with ethyl ether (Barry et al. 1995). Extraction efficiency was determined by adding 1000 dpm 1,2,6,7-^3H-cortisol to each larva sample (specific activity −67.0 Ci mmol^−1, Amersham, Piscataway, N.J.). Cortisol extracts were reconstituted in 150 μl RIA buffer (included in the cortisol RIA kit). Cortisol concentration was then determined in 100-μl aliquots. Spiking recovery was measured in unknown samples using three spiking dilutions (1, 3, 7 ng, Cortisol Immulite, DPC, Los Angeles, Calif.). […] Two additional 20-μl aliquots were taken to determine ^3H-cortisol recovery.

[3] = system: white bass, Morone chrysops larvae; assay: White bass larvae feeding (22 days) on enriched Artemia: growth, survival, total lipid; assay type: in vivo
Method: Larvae rearing. Newly hatched white bass, Morone chrysops larvae were obtained from AquaFutures Inc. (Turners Falls, Mass.). Larvae were grown for 17 days on rotifers, Bracionus plicatilis (2-5 rotifers/ml), which had been cultured on fresh water Chlorella (Martek BioSci. Inc. Columbia, Md.) paste (0.5 g/10^6 rotiferes/day). Larvae were randomly distributed in eighteen 60-liter larval rearing tanks at an initial density of 160 larvae per tank. The tanks were gently aerated and the water volume exchanged 1-2 times per day with biofiltered, U.V treated recirculating water. A 14:10 h light:dark photoperiod was maintained using fluorescent light tubes (Daylight; 40 watts; 800-1200 lux at the water surface). Temperature was maintained at 242° C. and salinity at 2-6 psu. Water quality was monitored daily and levels of total NH3, unionized NH3, NO2 and pH were maintained below 0.2 ppm, 0.001 ppm, 0.3 ppm and at 8.02, respectively. […]
Larvae were then fed twice daily with previously enriched Artemia nauplii, as described above, at a concentration of 50-100 nauplii/liter for the next 22 days.
[…] The dry weight of each larva was recorded to the nearest […] Nettler UMT2, Toledo, Switzerland). […] Survivorship was determined based on the initial and final count of larvae in each rearing tank.

[4] = system: striped bass (M. saxatilis) larvae; assay: Salinity stress test, larval survival; assay type: in vivo, Morone saxatilis; details: for Survival (%) at 30 min: 30 min high-salinity stress (25 psu)
Method: as §1

[5] = system: Gilthead sea bream, Sparus aurata larvae; assay: Gilthead sea bream larvae fed enriched rotifers and Artemia; assay type: in vivo; details: 5 to 34-day-old sea bream larvae; DHA enriched vs no DHA containing rotifers and Artemia
Method: Gilthead sea bream, Sparus aurata and European sea bass, Dicentrarchus labrax larvae originated from spawns of locally maintained broodstock were stocked over three days with two-day-old larvae (40,000 larvae tank^−1). Sea bream larvae from day 3 to day 20 were fed twice daily rotifers that were previously enriched on first phototrophically grown Nannochloropsis sp. and then on either Algamac-2000 or PL-Cr. Rotifer and Artemia enrichments and larval feeding were carried out as described in Koven et al. 2001. Sea bream larval growth and survival as a function of enrichment materials was recorded on day 34. European sea bass larvae were maintained in darkness until day-8 when they started feeding on non-enriched Artemia nauplii until day 11. From day-11 to day-21, the larvae were fed twice daily under low illumination (approximately 100-lux) Algamac-2000 or PL-Cr enriched Artemia nauplii.
Total lipids were extracted from triplicate samples. Lipid weight was determined gravimetrically (Mettler UMT2 ±0.1 mg, Toledo, Switzerland) and expressed as percent DW of sample. Fatty acid methyl esters (FAME) were prepared from the whole lipid extract, and the lipid classes separated, saponified and transmethylated as described by Harel et al. (2000).

[6] = dietary DHA 0.0 mg g^−1 D.W, pooled over AA levels

Compound: CCCCC/C=C\C/C=C\C/C=C\C/C=C\CCCC(=O)O [AA, arachidonic acid]
- Larval weight ([1]; 3-mg AA g^−1 lipids): 19.4 mg dry weight
- Larval weight ([1]; 14.5-mg AA g^−1 lipids): 23.7 mg dry weight
- Body Cortisol at 0 min ([2]; dietary AA 3.0 mg g^−1 D.W): 106 ± 10^B pg mg^−1 D.W
- Body Cortisol at 30 min ([2]; dietary AA 3.0 mg g^−1 D.W): 171 ± 18^A pg mg^−1 D.W
- Body Cortisol at 0 min ([2]; dietary AA 14.5 mg g^−1 D.W): 142 ± 15^A pg mg^−1 D.W
- Body Cortisol at 30 min ([2]; dietary AA 14.5 mg g^−1 D.W): 192 ± 27^A pg mg^−1 D.W
- Body Cortisol at 0 min ([2]; dietary AA 24.8 mg g^−1 D.W): 122 ± 10^AB pg mg^−1 D.W
- Body Cortisol at 30 min ([2]; dietary AA 24.8 mg g^−1 D.W): 167 ± 20^A pg mg^−1 D.W
- Increase in basal cortisol levels ([2]; increasing dietary AA from 3 to 14.5 mg AA g^−1 lipids): ~40%
- Larval growth (weight) ([3]; 25.4% AA of enrichment total fatty acids, 11.1% DHA): 13.1±1.5 mg dry weight
- Larval growth (weight) ([3]; no dietary AA, 11.1% DHA of total fatty acids in enrichment lipids): 21.3±1.8 mg dry weight
- Mortality after 30 min of exposure ([4]; 3 mg g^−1 lipids dietary AA (AA deficient larvae), 25-psu): over 80%
- Survival (%) at 30 min ([4]; dietary AA 3.0 mg g^−1 D.W, pooled over DHA levels): 19.5 ± 1.8^B %
- Survival (%) at 30 min ([4]; dietary AA 14.5 mg g^−1 D.W): 61.8±4.2% and 61.8 ± 4.2^A %
- Survival (%) at 30 min ([4]; dietary AA 24.8 mg g^−1 D.W): 48.7 ± 5.0^A %

Compound: CC/C=C\C/C=C\C/C=C\C/C=C\C/C=C\C/C=C\CCC(=O)O [DHA, docosahexaenoic acid]
- Improvement of larval growth [5]: ≤ 40%
- Larval weight (mean) ([1]; 21.6-mg DHA g^−1 lipids): 20.4 mg dry weight
- Larval weight (mean) ([1]; zero dietary DHA): 22.7 mg dry weight
- Body Cortisol at 0 min [2, 6]: 123 ± 8^A pg mg^−1 D.W
- Body Cortisol at 30 min ([2]; dietary DHA 0.0 mg g^−1 D.W): 155 ± 16^B pg mg^−1 D.W
- Body Cortisol at 0 min ([2]; dietary DHA 11.1 mg g^−1 D.W): 128 ± 16^A pg mg^−1 D.W
- Body Cortisol at 30 min ([2]; dietary DHA 11.1 mg g^−1 D.W): 182 ± 22^AB pg mg^−1 D.W
- Body Cortisol at 0 min ([2]; dietary DHA 21.6 mg g^−1 D.W): 118 ± 11^A pg mg^−1 D.W
- Body Cortisol at 30 min ([2]; dietary DHA 21.6 mg g^−1 D.W): 193 ± 26^A pg mg^−1 D.W
- Survival (%) at 30 min [4, 6]: 30.7 ± 4.9^B %
- Survival (%) at 30 min ([4]; dietary DHA 11.1 mg g^−1 D.W): 48.3 ± 7.2^AB %
- Survival (%) at 30 min ([4]; dietary DHA 21.6 mg g^−1 D.W): 50.99 ± 5.8^A %

— patent US7067145B2, “Use of arachidonic acid for enhanced culturing of fish larvae and broodstock” (University of Maryland Biotechnology Institute, priority 2000, dated 2006)
